Measured values taken from PMC6444592, “Citrullination of HP1γ chromodomain affects association with chromatin” (Epigenetics & Chromatin, 2019).

Experiments:
mESCs = assay: live-cell single-particle tracking, 13.5 ms, jump distance analysis; format: cell-based, mouse
Protocol: Parental E14 mouse embryonic stem cell (mESC) line was profiled by transcriptome analysis, qPCR and potency assays and was routinely tested for mycoplasma contamination and tested negative. Cells were cultured in DMEM (Gibco) supplemented with 15% standard FCS (Gibco), 0.1 mM non-essential amino acids (Gibco), 1% penicillin/streptomycin, 2 mM L-glutamine (Gibco), 1 mM sodium pyruvate (Gibco), 0.1 mM β-mercaptoethanol (Life Technologies) and 10^6 units/l mLIF (ESGRO, Millipore). E14 cells were stored in incubators at 37 °C in 7.5% CO2 (100% humidity) and maintained in 0.1% gelatin coated 10-cm culture dishes with 1:6 passaging every 2 days. Media was changed on a daily basis. E14 ESCs expressing mouse mEos3.2–HaloTag-HP1 fusion proteins were generated by transfecting appropriate pSB7 plasmids into E14 cells using Lipofectamine 2000 transfection reagent (Invitrogen), followed by selection in 600 µg/ml geneticin (Life Technologies). After 2 weeks of geneticin selection, cells were sorted using a Sony SH800S cell sorter for the expression of mEos3.2. Differentiation of ESCs was induced by LIF withdrawal. ESCs cultured in complete ES cell media (+ LIF) were trypsinised and washed twice in 1x PBS to remove residual LIF, seeded into ES cell media without LIF and incubated for 24, 48 or 72 h.
An IX73 Olympus inverted microscope was used with circularly polarised laser beams aligned and focused at the back aperture of an Olympus 1.40 NA 100 × oil objective (Universal Plan Super Apochromat, 100 × , NA 1.40, UPLSAPO100XO/1.4). Continuous wavelength diode laser light sources used include a 561-nm (Cobolt, Jive 200, 200 mW) and a 405-nm laser (Stradus, Toptica, 405–100, 100 mW). Oblique angle illumination was achieved by aligning the laser off axis such that the emergent beam at the sample interface was near-collimated and incident at an angle slightly less than the critical angle θc ~ 67° for a glass/water interface. This generated a ~ 50 μm diameter excitation footprint. The power of the collimated beams at the back aperture of the microscope was 10 kW/cm^2 and 10–100 W/cm^2 for the 561-nm and 405-nm laser beams, respectively. The lasers were reflected by dichroic mirrors (Semrock, Di01-R405/488/561/635). The fluorescence emission was collected through the same objective and then further filtered using a combination of long-pass and band-pass filters (BLP01-561R and FF01-587/35 for 561 nm excitation). The emission signal was projected onto an EMCCD (Photometrics, Evolve 512 Delta) with an electron multiplication gain of 250 ADU/photon operating in a frame transfer mode.
mESCs expressing mEos3.2–HaloTag-tagged HP1γ were passaged 2 days before imaging onto 35-mm glass bottom dishes No 1.0 (MatTek Corporation P35G-1.0-14-C Case) in phenol red-free serum and LIF conditions, if not stated otherwise. Just before single-particle tracking (SPT) imaging experiments, cells were labelled with 0.5 nM HaloTag–JF549 ligand for at least 15 min, followed by two washes in PBS and a 30-min incubation at 37 °C in media, before imaging the cells in fresh phenol red-free serum and LIF conditions. Cells were under-labelled to prevent overlap of fluorophores during SPT. Using 561 nm excitation, fluorescence images were collected as movies of 10,000 frames at 13.5 ms or 1000 to 5000 frames at 500 ms exposure. For live-cell tracking, data were collected for three biological replicates on separate dishes and the average values compared.
Live-cell 13.5-ms single-molecule traces were analysed using software that detects single-molecule trajectories from SPT movies. Briefly, the code detected puncta positions in each image frame using a brightness-weighted centroid after applying a band-pass filter to remove low-frequency background and high-frequency noise from the image data. To track the HP1 single molecules, only fluorescent puncta smaller than 3 pixels and with a signal to noise greater than 8 were analysed. […]

H3K9me3(1–16) peptides = assay: peptide pulldown assay; format: binding; settings: 300 mM NaCl HBS-EP; Coomassie gel; n = 3 (p values 0.021, 0.008; ns 0.181)
Protocol: H3K9me3 or unmethylated H3(1–16) peptides, linked to Dynabeads MyOne streptavidin T1 (Thermo Fisher Scientific), were used in pulldown assays with eluted GST-HP1 in HBS-EP (300 mM NaCl, 10 mM HEPES KOH pH 7.4, 5 mM EDTA and 0.2% NP-40). Pulldown assays were performed in 300 mM NaCl HBS-EP as previously described. Samples were resuspended in 2 × Laemmli buffer and resolved by SDS-PAGE followed by Coomassie-blue staining. Images were quantified using ImageJ software.

binding in pulldown, in words (H3K9me3(1–16) peptides): significantly reduced
Substance: HP1γR38/9A: HP1γ with alanine substitutions at amino acids 38 and 39 to mimic citrullination
Diffusion coefficient, Bound (mESCs; +LIF, 13.5 ms, replicate i): 0.090 µm2s-1
Diffusion coefficient, Diffusing (mESCs; +LIF, 13.5 ms, replicate i): 0.746 µm2s-1
Percentage, Bound (mESCs; +LIF, 13.5 ms, replicate i): 38.9%
Percentage, Diffusing (mESCs; +LIF, 13.5 ms, replicate i): 61.1%
Diffusion coefficient, Bound (mESCs; +LIF, 13.5 ms, replicate ii): 0.100 µm2s-1
Diffusion coefficient, Diffusing (mESCs; +LIF, 13.5 ms, replicate ii): 0.761 µm2s-1
Percentage, Bound (mESCs; +LIF, 13.5 ms, replicate ii): 29.6%
Percentage, Diffusing (mESCs; +LIF, 13.5 ms, replicate ii): 70.4%
Diffusion coefficient, Bound (mESCs; +LIF, 13.5 ms, replicate iii): 0.100 µm2s-1
Diffusion coefficient, Diffusing (mESCs; +LIF, 13.5 ms, replicate iii): 0.706 µm2s-1
Percentage, Bound (mESCs; +LIF, 13.5 ms, replicate iii): 34.1%
Percentage, Diffusing (mESCs; +LIF, 13.5 ms, replicate iii): 65.9%
Diffusion coefficient, Bound (mESCs; +LIF, 13.5 ms, replicate iv): 0.100 µm2s-1
Diffusion coefficient, Diffusing (mESCs; +LIF, 13.5 ms, replicate iv): 1.012 µm2s-1
Percentage, Bound (mESCs; +LIF, 13.5 ms, replicate iv): 21.5%
Percentage, Diffusing (mESCs; +LIF, 13.5 ms, replicate iv): 78.5%
Diffusion coefficient, Bound (mESCs; +LIF, 13.5 ms, replicate v): 0.100 µm2s-1
Diffusion coefficient, Diffusing (mESCs; +LIF, 13.5 ms, replicate v): 1.094 µm2s-1
Percentage, Bound (mESCs; +LIF, 13.5 ms, replicate v): 13.1%
Percentage, Diffusing (mESCs; +LIF, 13.5 ms, replicate v): 86.9%
Diffusion coefficient, Bound (mESCs; +LIF, 13.5 ms, replicate vi): 0.100 µm2s-1
Diffusion coefficient, Diffusing (mESCs; +LIF, 13.5 ms, replicate vi): 1.108 µm2s-1
Percentage, Bound (mESCs; +LIF, 13.5 ms, replicate vi): 37.1%
Percentage, Diffusing (mESCs; +LIF, 13.5 ms, replicate vi): 62.9%
percentages of molecules in diffusing and bound fractions, significance across conditions (mESCs; WT and R38/9A, +/− LIF, p values > 0.967): ns.
diffusion coefficients, significance across conditions (mESCs; WT and R38/9A, +/− LIF, p values > 0.999): no significant differences across conditions
diffusion rate, effect of LIF withdrawal (mESCs; −LIF 72 h versus +LIF, 13.5 ms): no significant effect
Diffusion coefficient, Bound (mESCs; −LIF, 13.5 ms, replicate i): 0.075 µm2s-1
Diffusion coefficient, Diffusing (mESCs; −LIF, 13.5 ms, replicate i): 0.609 µm2s-1
Percentage, Bound (mESCs; −LIF, 13.5 ms, replicate i): 44.5%
Percentage, Diffusing (mESCs; −LIF, 13.5 ms, replicate i): 55.5%
Diffusion coefficient, Bound (mESCs; −LIF, 13.5 ms, replicate ii): 0.100 µm2s-1
Diffusion coefficient, Diffusing (mESCs; −LIF, 13.5 ms, replicate ii): 0.697 µm2s-1
Percentage, Bound (mESCs; −LIF, 13.5 ms, replicate ii): 37.2%
Percentage, Diffusing (mESCs; −LIF, 13.5 ms, replicate ii): 62.8%
Diffusion coefficient, Bound (mESCs; −LIF, 13.5 ms, replicate iii): 0.100 µm2s-1
Diffusion coefficient, Diffusing (mESCs; −LIF, 13.5 ms, replicate iii): 0.913 µm2s-1
Percentage, Bound (mESCs; −LIF, 13.5 ms, replicate iii): 32.9%
Percentage, Diffusing (mESCs; −LIF, 13.5 ms, replicate iii): 67.1%
Diffusion coefficient, Bound (mESCs; −LIF, 13.5 ms, replicate iv): 0.100 µm2s-1
Diffusion coefficient, Diffusing (mESCs; −LIF, 13.5 ms, replicate iv): 0.659 µm2s-1
Percentage, Bound (mESCs; −LIF, 13.5 ms, replicate iv): 34.6%
Percentage, Diffusing (mESCs; −LIF, 13.5 ms, replicate iv): 65.4%
Diffusion coefficient, Bound (mESCs; −LIF, 13.5 ms, replicate ix): 0.100 µm2s-1
Diffusion coefficient, Diffusing (mESCs; −LIF, 13.5 ms, replicate ix): 1.031 µm2s-1
Percentage, Bound (mESCs; −LIF, 13.5 ms, replicate ix): 28.9%
Percentage, Diffusing (mESCs; −LIF, 13.5 ms, replicate ix): 71.1%
Diffusion coefficient, Bound (mESCs; −LIF, 13.5 ms, replicate v): 0.100 µm2s-1
Diffusion coefficient, Diffusing (mESCs; −LIF, 13.5 ms, replicate v): 0.710 µm2s-1
Percentage, Bound (mESCs; −LIF, 13.5 ms, replicate v): 39.6%
Percentage, Diffusing (mESCs; −LIF, 13.5 ms, replicate v): 60.4%
Diffusion coefficient, Bound (mESCs; −LIF, 13.5 ms, replicate vi): 0.100 µm2s-1
Diffusion coefficient, Diffusing (mESCs; −LIF, 13.5 ms, replicate vi): 0.582 µm2s-1
Percentage, Bound (mESCs; −LIF, 13.5 ms, replicate vi): 38.6%
Percentage, Diffusing (mESCs; −LIF, 13.5 ms, replicate vi): 61.4%
Diffusion coefficient, Bound (mESCs; −LIF, 13.5 ms, replicate vii): 0.100 µm2s-1
Diffusion coefficient, Diffusing (mESCs; −LIF, 13.5 ms, replicate vii): 0.774 µm2s-1
Percentage, Bound (mESCs; −LIF, 13.5 ms, replicate vii): 36.9%
Percentage, Diffusing (mESCs; −LIF, 13.5 ms, replicate vii): 63.1%
Diffusion coefficient, Bound (mESCs; −LIF, 13.5 ms, replicate viii): 0.100 µm2s-1
Diffusion coefficient, Diffusing (mESCs; −LIF, 13.5 ms, replicate viii): 0.812 µm2s-1
Percentage, Bound (mESCs; −LIF, 13.5 ms, replicate viii): 33.6%
Percentage, Diffusing (mESCs; −LIF, 13.5 ms, replicate viii): 66.4%
